Assay results published in patent US20180325930A1, “Use of Oligosaccharide Compounds for Activating Angiogenesis” (Urgo Recherche Innovation et Developpement, priority 2015, published 2018).

System: chick embryo chorioallantoic membranes (CAM)
Experiment: chicken ex ovo chorioallantoic membrane (CAM) angiogenesis model
Type: in vivo
Description: This consists of a vascularised membrane found in bird or reptile eggs. In mammals, this structure forms the placenta. The model for the study will be a chicken ex OVO (without the shell) CAM model.
Fertilised chicken eggs were used.
For the study, VEGF-A was used as the positive control.
Potassium sucrose octasulphate salt (KSOS) is presented in the form of a solution at different concentrations, buffered with PBS.
A PBS buffer solution was used as a negative control.
On receipt, the eggs are stored at 13° C. to stop the development thereof until the time of the study. The eggs are then placed in incubation in a hatcher at 37° C. to enable the development of the embryo.
At 3 days, the eggs are broken unto a weighing cup so as to remove the shell, thereby rendering the embryo and all the structures accessible for future treatment. The ex ovo embryos are then placed back in the hatcher where they will continue the in vitro development thereof.
The embryos will be treated in the vehicle (PBS only), VEGF or different concentration of KSOS.
The treatment area is delimited by a silicone ring 1 cm in diameter and 0.2 in thickness. The treatment volume is 25 μl. The treated embryos are placed back in the hatcher for 48 hours.
After 48 hours of incubation, 10% skimmed milk is injected between the CAM and the yolk to separate the 2 vascularisations and increase the contrast for an optimal photographic shot. A photo is taken of the treatment area with a NIKON AZ 1 OO, NIS-element capture software, with 0.5×4 magnification.
On the basis of these photos, a number of parameters were determined using the image analysis software: • a) the total tube length (sum of the lengths of each vessel in the image), • b) the number of segments (total number of vessels connected to a branch point), • c) the number of branch points (total number of junctions connected to a segment). • b and c are representative of the formation of new characteristic vessels of angiogenesis.

| Compound | angiogenesis activation (significance with respect to VEGF-A or 100 mg/mL KSOS) (30 mg/mL, 48 hours) | vascular network visible (30 mg/mL, 48 hours) | angiogenesis activation (significance with respect to VEGF-A or 100 mg/mL KSOS) (50 mg/mL, 48 hours) | vascular network visible (50 mg/mL, 48 hours) | 3 parameters measured (total tube length, number of segments, number of branch points), image analysis vs PBS (100 mg/mL, 48 hours) | angiogenesis activation compared with positive control VEGF-A (100 mg/mL, 48 hours) | vascular network observed on photos (100 mg/mL, 48 hours) | CAM vascularisation at the treatment area (overall, according to the dose) (3-100 mg/mL, 48 hours) | vascular change with respect to the negative control (PBS only), photos (from 30 mg/mL, 48 hours) | concentration from which angiogenesis activation is considered significant (inferred from results at 50 and 100 mg/mL, 70 mg/mL not tested) [mg/mL] | neovascularisation of the CAM (photos of treatment area) (VEGF 0.5 μg (20 μg/mL), 25 μl, 48 hours) | 3 parameters measured (total tube length, number of segments, number of branch points), image analysis vs PBS (VEGF 0.5 μg (20 μg/mL), 48 hours) |
| --- | --- | --- | --- | --- | --- | --- | --- | --- | --- | --- | --- | --- |
| O=S(=O)([O-])OCC1OC(OC2(COS(=O)(=O)[O-])OC(COS(=O)(=O)[O-])C(OS(=O)(=O)[O-])C2OS(=O)(=O)[O-])C(OS(=O)(=O)[O-])C(OS(=O)(=O)[O-])C1OS(=O)(=O)[O-].[K+].[K+].[K+].[K+].[K+].[K+].[K+].[K+] (stereo not drawn) [KSOS, potassium sucrose octasulphate salt] | not considered to be significant | poorly developed vascular network | not considered to be significant | poorly developed vascular network | significant increase | angiogenesis activation equivalent to that observed with VEGF-A | well-developed vascular network | increase in CAM vascularisation | slight vascular change | ≥ 70 | – | – |
| VEGF [reference compound] | – | – | – | – | – | – | – | – | – | – | anarchic neovascularisation | significant increase |
